# Reference: patent publication US20060223846A1, “Aza-bridged-bicyclic amino acid derivatives as alpha4 integrin antagonists” (priority 2005, published 2006)
# Tested on: α4β7 integrin-positive cells
# Test: Intraperitoneal Delayed Type Hypersensitivity (IP-DTH) Response, ovalbumin challenge
# Type: in vivo
# Conditions: 80 mg/kg, sc, qd × 2; mice, 48 hours after antigen challenge
# Source text: Intraperitoneal Delayed Type Hypersensitivity (IP-DTH) Response. A Method for Analyzing Effects of Integrin Antagonists In Vivo
# Background: Integrin antagonists are meant to interfere with the binding or adhesion of immune cells, such as lymphocytes, monocytes and eosinophils that bear integrin receptors to counter-receptors that exist on endothelial cells in the vasculature. Among those integrin-bearing cells, cells that are positive for α4β7 integrin are found in the mesenteric system and in the gut, and would comprise many of the cells recruited to a peritoneal antigen challenge. One can maximize the number of α4β7 integrin-positive cells recruited by inducing an intraperitoneal delayed type hypersensitivity response to antigen that will recruite antigen-responsive cells from the mesenteric lymph nodes. An inhibitor of α4β7 integrin should prevent the recruitment of these cells to the site of antigen challenge. […]
# The cells were stained with fluorochrome-coupled antibody to α4β7 integrin or a primary antibody to α4β7 integrin followed by a secondary fluorochrome-coupled antibody. […] The cells were then transferred to test tubes and maintained at 4° C. until analyzed by flow cytometry to determine numbers of α4β7-postive cells. […]
row,Compound,Percent Decrease in recruited α4β7+ cells
1,O=C(Nc1ccc(CC(NC(=O)C2C3CCC(CC3)N2C(=O)Cc2ccsc2)C(=O)O)cc1)c1c(Cl)cncc1Cl (centres unmarked) [Cpd 3],20%
2,"CC(C)(C)CCN1C2CCC(CC2)[C@H]1C(=O)N[C@@H](Cc1ccc(NC(=O)c2c(Cl)cncc2Cl)cc1)C(=O)O [Cpd 16, 3-{4-[(3,5-dichloro-pyridine-4-carbonyl)-amino]-phenyl}-2-{[2-(3,3-dimethyl-butyl)-2-aza-bicyclo[2.2.2]octane-3-carbonyl]-amino}-propionic acid]",56%
